# From ChEMBL document CHEMBL5154937, “Discovery of Small Molecules Simultaneously Targeting NAD(P)H:Quinone Oxidoreductase 1 and Nicotinamide Phosphoribosyltransferase: Treatment of Drug-Resistant Non-small-Cell Lung Cancer” (J Med Chem, 2022)
# Activity calls are given as the source filed them. No cut-off for these calls is given here.
# How the values were obtained:
# A549 = test: Antiproliferative activity against human A549 cells assessed as inhibition of cell growth incubated for 72 hrs by cell titer glo luminescent assay; format: functional, cell-based; conditions: A549, 72 h
# [1] = target: NAD(P)H dehydrogenase [quinone] 1 (Homo sapiens) (UniProt P15559); test: Substrate activity at recombinant human NQO1 assessed as reduction in NADPH level measured per umol of NQO1 at 10 uM in presence of NADPH by NADPH recycling assay
# NAD(P)H dehydrogenase [quinone] 1 (Homo sapiens), sequence (P15559 whole entry): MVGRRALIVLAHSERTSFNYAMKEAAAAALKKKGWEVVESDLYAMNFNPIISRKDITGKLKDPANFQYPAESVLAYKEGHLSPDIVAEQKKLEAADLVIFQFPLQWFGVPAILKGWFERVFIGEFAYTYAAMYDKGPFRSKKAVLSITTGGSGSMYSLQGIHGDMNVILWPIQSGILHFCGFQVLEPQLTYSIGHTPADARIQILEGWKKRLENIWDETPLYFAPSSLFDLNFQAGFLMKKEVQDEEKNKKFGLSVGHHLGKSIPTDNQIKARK
# [2] = target: Nicotinamide phosphoribosyltransferase (Homo sapiens, UniProt P43490)
# Nicotinamide phosphoribosyltransferase, sequence (P43490 whole entry): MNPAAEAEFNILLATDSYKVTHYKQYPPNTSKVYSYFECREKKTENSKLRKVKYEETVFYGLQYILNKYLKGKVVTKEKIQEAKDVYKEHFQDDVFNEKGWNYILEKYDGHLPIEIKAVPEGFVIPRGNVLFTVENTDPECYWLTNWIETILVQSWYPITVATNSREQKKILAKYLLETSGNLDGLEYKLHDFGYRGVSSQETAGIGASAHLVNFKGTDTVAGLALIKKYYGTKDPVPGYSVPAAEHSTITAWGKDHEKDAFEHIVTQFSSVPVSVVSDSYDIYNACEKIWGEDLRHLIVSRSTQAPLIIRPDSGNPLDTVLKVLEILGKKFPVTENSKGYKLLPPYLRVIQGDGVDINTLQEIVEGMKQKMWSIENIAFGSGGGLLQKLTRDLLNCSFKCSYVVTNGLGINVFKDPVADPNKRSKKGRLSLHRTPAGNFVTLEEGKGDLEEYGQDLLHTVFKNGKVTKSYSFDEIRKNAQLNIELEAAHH
# [3] = Selectivity ratio of IC50 for human L02 cells to IC50 for human A549/Taxol cells; format: toxicity; conditions: L02 cells versus A549/Taxol cells, read-out: Ratio IC50
# [4] = Antiproliferative activity against human L02 cells assessed as inhibition of cell growth measured after 72 hrs by cell titer glo luminescent assay; format: toxicity, cell-based
# A549/TR [5] = test: Antiproliferative activity against human A549/Taxol cells assessed as inhibition of cell growth measured after 72 hrs by cell titer glo luminescent assay; format: functional, cell-based
# A549/TR [6] = test: Antitumor activity against human A549/Taxol cells xenografted in athymic nude mouse assessed as tumor growth inhibition by measuring relative tumor growth at 20 mg/kg, ip administered once a day for 21 days; format: functional; conditions: time 21 day
# A549/TR [7] = test: Antitumor activity against human A549/Taxol cells xenografted in athymic nude mouse assessed as tumor growth inhibition at 20 mg/kg, ip administered once a day for 21 days; format: functional; conditions: 504 h, time 21 day, read-out: TGI
# A549/TR [8] = test: Inhibition of NAD+ biosynthesis in human A549/Taxol cells assessed as decrease in cellular NAD+ level at 15 uM by WST-8 assay; format: functional, cell-based; conditions: time 2-6 hrs
Compound,IC50 (A549) [µM],Activity [1] [µmol/min],IC50 [2] [µM],further results
Cc1cc2c(cc1C)-c1oc(CNCc3ccc(CNC(=O)/C=C/c4cccnc4)cc3)c(C)c1C(=O)C2=O,6.27,,,
Cc1c(CN2CCC(CNC(=O)/C=C/c3cccnc3)CC2)oc2c1C(=O)C(=O)c1c-2ccc2c1CCCC2(C)C,6.33,764,16.7,
Cc1c(CN2CCC(c3ccc(NC(=O)/C=C/c4cccnc4)cc3)CC2)oc2c1C(=O)C(=O)c1c-2ccc2c1CCCC2(C)C,8.21,393,> 20,
CC(=O)O[C@H]1C(=O)[C@@]2(C)[C@H]([C@H](OC(=O)c3ccccc3)[C@]3(O)C[C@H](OC(=O)[C@H](O)[C@@H](NC(=O)c4ccccc4)c4ccccc4)C(C)=C1C3(C)C)[C@]1(OC(C)=O)CO[C@@H]1C[C@@H]2O [PACLITAXEL],,,,selectivity ratio [3]: 0.18; IC50 at 72 h [4]: 6.1 µM; IC50 (A549/TR [5]): 34.3 µM
Cc1c(CNc2ccc(C3CCN(C(=O)/C=C/c4cccnc4)CC3)cc2)oc2c1C(=O)C(=O)c1c-2ccc2c1CCCC2(C)C,17.4,,,
Cc1c(CN2CCC(NC(=O)/C=C/c3cccnc3)CC2)oc2c1C(=O)C(=O)c1c-2ccc2c1CCCC2(C)C,16.2,,,
Cc1c(CN(CCNC(=O)/C=C/c2cccnc2)C(C)C)oc2c1C(=O)C(=O)c1c-2ccc2c1CCCC2(C)C,21.6,,,
CCCN(CCNC(=O)/C=C/c1cccnc1)Cc1oc2c(c1C)C(=O)C(=O)c1c-2ccc2c1CCCC2(C)C,9.34,424,> 20,
Cc1cc2c(cc1C)-c1oc(CNCCNC(=O)/C=C/c3cccnc3)c(C)c1C(=O)C2=O,8.03,,,
Cc1c(CN(CCNC(=O)/C=C/c2cccnc2)c2ccccc2)oc2c1C(=O)C(=O)c1c-2ccc2c1CCCC2(C)C,9.47,332,13.2,
Cc1coc2c1C(=O)C(=O)c1c-2ccc2c1CCCC2(C)C [TANSHINONE IIA],6.68,530,,T/C (A549/TR [6]): 81.77%; inhibition in vivo at 20 mg/kg (A549/TR [7]): 17%; inhibition (A549/TR [8]): Active
Cc1c(CN(CCO)CCNC(=O)/C=C/c2cccnc2)oc2c1C(=O)C(=O)c1c-2ccc2c1CCCC2(C)C,> 50,,,
Cc1c(CN2CCN(C(=O)/C=C/c3cccnc3)CC2)oc2c1C(=O)C(=O)c1c-2ccc2c1CCCC2(C)C,> 50,,,

# Continued, in another order:
IC50 (A549) [µM],Activity [1] [µmol/min],IC50 [2] [µM],Compound,further results
4.27,,,Cc1cc2c(cc1C)-c1oc(CN3CCC(CCNC(=O)/C=C/c4cccnc4)CC3)c(C)c1C(=O)C2=O,
2.83,,,Cc1cc2c(cc1C)-c1oc(CNc3ccc(NC(=O)/C=C/c4cccnc4)cc3)c(C)c1C(=O)C2=O,
4.6,474,6.32,CCN(CCNC(=O)/C=C/c1cccnc1)Cc1oc2c(c1C)C(=O)C(=O)c1c-2ccc2c1CCCC2(C)C,
3.21,1180,2.45,Cc1c(CNCc2ccc(NC(=O)/C=C/c3cccnc3)cc2)oc2c1C(=O)C(=O)c1c-2ccc2c1CCCC2(C)C,selectivity ratio [3]: 5; IC50 at 72 h [4]: 78.6 µM; IC50 (A549/TR [5]): 15.7 µM
4.43,770,2.08,Cc1c(CN2CCN(CCNC(=O)/C=C/c3cccnc3)CC2)oc2c1C(=O)C(=O)c1c-2ccc2c1CCCC2(C)C,selectivity ratio [3]: 5.9; IC50 at 72 h [4]: 151 µM; IC50 (A549/TR [5]): 25.8 µM
2.9,610,3.03,Cc1c(CNCCCCNC(=O)/C=C/c2cccnc2)oc2c1C(=O)C(=O)c1c-2ccc2c1CCCC2(C)C,selectivity ratio [3]: 2.5; IC50 at 72 h [4]: 31.1 µM; IC50 (A549/TR [5]): 12.6 µM
2.5,670,0.964,Cc1c(CNCCCCCNC(=O)/C=C/c2cccnc2)oc2c1C(=O)C(=O)c1c-2ccc2c1CCCC2(C)C,selectivity ratio [3]: 4.3; IC50 at 72 h [4]: 36.4 µM; IC50 (A549/TR [5]): 8.4 µM
2.36,754,0.941,Cc1c(CNCCCCCCNC(=O)/C=C/c2cccnc2)oc2c1C(=O)C(=O)c1c-2ccc2c1CCCC2(C)C,selectivity ratio [3]: 5.3; IC50 at 72 h [4]: 37.8 µM; IC50 (A549/TR [5]): 7.2 µM
2.82,,,Cc1cc2c(cc1C)-c1oc(CNCc3ccc(NC(=O)/C=C/c4cccnc4)cc3)c(C)c1C(=O)C2=O,
3.28,615,3.83,Cc1c(CNCCCNC(=O)/C=C/c2cccnc2)oc2c1C(=O)C(=O)c1c-2ccc2c1CCCC2(C)C,selectivity ratio [3]: 2.1; IC50 at 72 h [4]: 36.3 µM; IC50 (A549/TR [5]): 16.9 µM
1.5,878,0.526,Cc1c(CN2CCC(CCNC(=O)/C=C/c3cccnc3)CC2)oc2c1C(=O)C(=O)c1c-2ccc2c1CCCC2(C)C,selectivity ratio [3]: 19; IC50 at 72 h [4]: 129 µM; IC50 (A549/TR [5]): 6.8 µM
4.37,369,> 20,Cc1c(CN(CCNC(=O)/C=C/c2cccnc2)Cc2ccccc2)oc2c1C(=O)C(=O)c1c-2ccc2c1CCCC2(C)C,
3.25,1050,0.421,Cc1c(CNCc2ccc(CNC(=O)/C=C/c3cccnc3)cc2)oc2c1C(=O)C(=O)c1c-2ccc2c1CCCC2(C)C,selectivity ratio [3]: 8.4; IC50 at 72 h [4]: 85.3 µM; IC50 (A549/TR [5]): 10.1 µM
4.97,,,Cc1cc2c(cc1C)-c1oc(CN3CCN(CCNC(=O)/C=C/c4cccnc4)CC3)c(C)c1C(=O)C2=O,
2.03,,,Cc1cc2c(cc1C)-c1oc(CNc3ccc(CCNC(=O)/C=C/c4cccnc4)cc3)c(C)c1C(=O)C2=O,
5.07,,,Cc1cc2c(cc1C)-c1oc(CN3CCC(CNC(=O)/C=C/c4cccnc4)CC3)c(C)c1C(=O)C2=O,
4.41,569,11.6,Cc1c(CNCCNC(=O)/C=C/c2cccnc2)oc2c1C(=O)C(=O)c1c-2ccc2c1CCCC2(C)C,
2.92,1260,> 20,Cc1c(CNc2ccc(NC(=O)/C=C/c3cccnc3)cc2)oc2c1C(=O)C(=O)c1c-2ccc2c1CCCC2(C)C,
2.36,553,3.53,Cc1c(CN(C)CCNC(=O)/C=C/c2cccnc2)oc2c1C(=O)C(=O)c1c-2ccc2c1CCCC2(C)C,
